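96-well plates; 48 h exposure; 5 concentrations. Endpoints by linear interpolation between flanking doses. Not reached: highest tested concentration assigned. GI50 = concentration required for 50% inhibition of growth.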 Calls of active or inactive are those of the source. Rule as the data show it: active = GI50 up to about 1.1 µM and inactive = higher.
Tests used:
Assay in all cases: NCI anticancer screen, dose series, 48 h
UO-31 = test system: UO-31
IGROV-1 = test system: IGROV-1
SNB-75 = test system: SNB-75
OVCAR-4 = test system: OVCAR-4
EKVX = test system: EKVX
A498 = test system: A498
MOLT-4 = test system: MOLT-4
NCI-H522 = test system: NCI-H522
NCI-H23 = test system: NCI-H23
M14 = test system: M14
OVCAR-5 = test system: OVCAR-5
SF-268 = test system: SF-268
K562 = test system: K562
CCRF-CEM = test system: CCRF-CEM
UACC-257 = test system: UACC-257

Measured: GI50

CC(C)C1COC(c2cccc(C3=N[C@@H](C(C)C)CO3)n2)=N1 (stereo not given in full)
inactive: UO-31 98.6 µM | IGROV-1 > 100 µM | SNB-75 > 100 µM | OVCAR-4 > 100 µM | EKVX > 100 µM | A498 > 100 µM | MOLT-4 > 100 µM | NCI-H522 > 100 µM | NCI-H23 > 100 µM | M14 > 100 µM | OVCAR-5 > 100 µM | SF-268 > 100 µM | K562 > 100 µM | CCRF-CEM > 100 µM

COC(=O)C(=O)C(CC(=O)Nc1ccc(C)cc1)C(=O)OC (stereo not given)
inactive: UO-31 > 100 µM | IGROV-1 > 100 µM | UACC-257 > 100 µM | OVCAR-4 > 100 µM | EKVX > 100 µM | MOLT-4 > 100 µM | NCI-H522 > 100 µM | NCI-H23 > 100 µM | M14 > 100 µM | OVCAR-5 > 100 µM | SF-268 > 100 µM | K562 > 100 µM | CCRF-CEM > 100 µM

[N-]=[N+]=NC1CC(n2cc(COCC(F)(F)F)c(=O)[nH]c2=O)OC1CO (stereo not given)
inactive: UO-31 > 100 µM | IGROV-1 > 100 µM | UACC-257 > 100 µM | SNB-75 > 100 µM | OVCAR-4 > 100 µM | EKVX > 100 µM | A498 > 100 µM | MOLT-4 > 100 µM | NCI-H522 > 100 µM | NCI-H23 > 100 µM | M14 > 100 µM | OVCAR-5 > 100 µM | SF-268 > 100 µM | K562 > 100 µM | CCRF-CEM > 100 µM

Cc1nc(Nc2ccc([N+](=O)[O-])cc2)sc1C(=O)/C=C/c1ccc(N(C)C)cc1
inactive: UO-31 36.8 µM | IGROV-1 > 100 µM | UACC-257 81.3 µM | SNB-75 > 100 µM | EKVX 52.5 µM | A498 49.2 µM | MOLT-4 35.9 µM | NCI-H522 19.4 µM | NCI-H23 > 100 µM | OVCAR-5 > 100 µM | SF-268 > 100 µM | K562 37.8 µM | CCRF-CEM 60.1 µM

NC(Cc1ccccc1)C(=O)OCN1C(=O)C2C3C=CC(C2C1=O)C1C2C(=O)N(COC(=O)C(N)Cc4ccccc4)C(=O)C2C31 (stereo not given)
inactive: IGROV-1 23.9 µM | UACC-257 23.2 µM | SNB-75 26.2 µM | OVCAR-4 23.3 µM | NCI-H23 19.9 µM | M14 19.5 µM | OVCAR-5 35.5 µM | SF-268 17.4 µM | K562 29.6 µM | CCRF-CEM 22.8 µM

COc1cccc2c1C(=O)C1(O)CCCCC21 (stereo not given)
inactive: UO-31 > 100 µM | IGROV-1 > 100 µM | UACC-257 > 100 µM | SNB-75 > 100 µM | OVCAR-4 > 100 µM | A498 > 100 µM | MOLT-4 > 100 µM | NCI-H522 > 100 µM | NCI-H23 > 100 µM | M14 > 100 µM | OVCAR-5 > 100 µM | SF-268 > 100 µM | K562 > 100 µM | CCRF-CEM > 100 µM

CN(C)CCCNC(=O)N/N=C/c1cccc([N+](=O)[O-])c1
inactive: IGROV-1 > 100 µM | UACC-257 > 100 µM | SNB-75 44 µM | OVCAR-4 > 100 µM | MOLT-4 > 100 µM | NCI-H522 > 100 µM | NCI-H23 > 100 µM | M14 > 100 µM | SF-268 > 100 µM | K562 > 100 µM | CCRF-CEM > 100 µM

[N-]=[N+]=NC(c1cn(C2CC(O)C(CO)O2)c(=O)[nH]c1=O)C(Cl)Br (stereo not given)
inactive: UO-31 > 100 µM | SNB-75 > 100 µM | EKVX > 100 µM | MOLT-4 > 100 µM | NCI-H522 > 100 µM | NCI-H23 > 100 µM | K562 > 100 µM | CCRF-CEM 50.8 µM

CCCO/S(=N\S(=O)(=O)c1ccccc1)c1ccccc1[N+](=O)[O-] (stereo not given)
inactive: UO-31 > 100 µM | IGROV-1 > 100 µM | UACC-257 > 100 µM | SNB-75 > 100 µM | OVCAR-4 > 100 µM | EKVX > 100 µM | MOLT-4 > 100 µM | NCI-H522 > 100 µM | NCI-H23 > 100 µM | M14 > 100 µM | OVCAR-5 > 100 µM | SF-268 > 100 µM | K562 > 100 µM | CCRF-CEM > 100 µM

CC(C)c1ccc2c(c1)CCC1C(C)(C)[C@@H](O)CC[C@]21C (stereo not given in full)
inactive: UO-31 69.5 µM | IGROV-1 > 100 µM | SNB-75 19.6 µM | OVCAR-4 56.8 µM | MOLT-4 22.1 µM | NCI-H522 25 µM | NCI-H23 29.8 µM | M14 27.9 µM | OVCAR-5 18.8 µM | SF-268 39 µM | K562 24.9 µM | CCRF-CEM 27.9 µM

Brc1ccc(/N=c2/nc3ccccn3n3nc(-c4ccccc4)cc23)cc1
inactive: UO-31 > 100 µM | IGROV-1 > 100 µM | UACC-257 48.4 µM | SNB-75 52.4 µM | OVCAR-4 5.89 µM | EKVX 47.6 µM | MOLT-4 > 100 µM | NCI-H522 17.3 µM | NCI-H23 55.3 µM | M14 13.7 µM | SF-268 41.6 µM | K562 > 100 µM | CCRF-CEM > 100 µM

NC(=O)N1N=C2c3ccccc3SC[C@H]2[C@@H]1c1ccccc1
inactive: UO-31 23.9 µM | IGROV-1 26.6 µM | UACC-257 18.4 µM | OVCAR-4 26.9 µM | EKVX 35 µM | A498 35.1 µM | MOLT-4 23.7 µM | NCI-H522 > 10 µM | NCI-H23 35.6 µM | OVCAR-5 21.3 µM | SF-268 33.3 µM | K562 24.2 µM | CCRF-CEM 23.1 µM

COC(=O)c1ccccc1NC(=O)C(=O)NNC(=O)c1ccncc1
inactive: UO-31 > 100 µM | IGROV-1 > 100 µM | UACC-257 > 100 µM | SNB-75 > 100 µM | OVCAR-4 > 100 µM | EKVX > 100 µM | MOLT-4 > 100 µM | NCI-H522 > 100 µM | NCI-H23 > 100 µM | M14 > 100 µM | SF-268 > 10 µM | CCRF-CEM > 100 µM

CCCCCCCCCCCCCCCCCC(=O)NCCCNCCCNC(=O)CCCCCCCCCCCCCCCCC
inactive: UO-31 > 100 µM | IGROV-1 > 100 µM | UACC-257 > 100 µM | OVCAR-4 > 100 µM | A498 > 100 µM | MOLT-4 > 100 µM | NCI-H23 > 100 µM | M14 > 100 µM | OVCAR-5 > 100 µM | SF-268 > 100 µM | K562 > 100 µM | CCRF-CEM > 100 µM

Nc1ccc2c(c1)Oc1c(F)c(F)cc3c(=O)c(C(=O)O)cn-2c13
inactive: UO-31 27.3 µM | IGROV-1 38.6 µM | OVCAR-4 40.1 µM | EKVX > 100 µM | A498 4 µM | MOLT-4 24 µM | NCI-H522 29.9 µM | NCI-H23 64.1 µM | M14 81.5 µM | OVCAR-5 > 100 µM | SF-268 > 10 µM | K562 59.6 µM | CCRF-CEM 33 µM

Cc1c(Cl)ccc2c1NC(=O)C2(O)C1Cc2ccccc2C1=O (stereo not given)
inactive: UO-31 92.9 µM | IGROV-1 > 100 µM | UACC-257 > 100 µM | OVCAR-4 86.5 µM | EKVX > 100 µM | A498 > 100 µM | MOLT-4 25.2 µM | NCI-H522 > 100 µM | NCI-H23 > 100 µM | M14 > 100 µM | OVCAR-5 > 100 µM | SF-268 > 100 µM | K562 62.1 µM | CCRF-CEM 26.1 µM

CC(C)(C)c1cc(CCC(=O)Nc2ccc(Cl)cc2)nc(S)n1
inactive: UO-31 > 100 µM | IGROV-1 > 100 µM | UACC-257 > 100 µM | SNB-75 > 100 µM | OVCAR-4 > 100 µM | EKVX > 100 µM | MOLT-4 > 100 µM | NCI-H522 > 100 µM | NCI-H23 > 100 µM | M14 > 100 µM | OVCAR-5 > 100 µM | SF-268 > 100 µM | K562 > 100 µM | CCRF-CEM > 100 µM

O=c1[nH]nc2ccccc2c1Cl
inactive: UO-31 15 µM | IGROV-1 12.6 µM | UACC-257 10.2 µM | SNB-75 10.7 µM | OVCAR-4 11.2 µM | EKVX 4.29 µM | A498 17.5 µM | MOLT-4 14 µM | NCI-H23 15.1 µM | M14 12.3 µM | OVCAR-5 18.3 µM | SF-268 17.8 µM | K562 4.24 µM | CCRF-CEM 6.14 µM

O/N=C1/CCCC/C1=C\c1ccc(Cl)c(Cl)c1
inactive: UO-31 20.8 µM | IGROV-1 38 µM | SNB-75 20.7 µM | OVCAR-4 21.5 µM | EKVX 23.9 µM | A498 29.6 µM | MOLT-4 15.2 µM | NCI-H23 28.8 µM | M14 28.2 µM | SF-268 25.1 µM | K562 27.8 µM | CCRF-CEM 18.9 µM

COP1(=O)CC2C(Cl)(Cl)C2(C)C1 (stereo not given)
inactive: IGROV-1 > 100 µM | SNB-75 > 100 µM | OVCAR-4 > 100 µM | MOLT-4 > 100 µM | NCI-H522 > 100 µM | NCI-H23 > 100 µM | M14 > 100 µM | SF-268 > 100 µM | K562 > 100 µM | CCRF-CEM > 100 µM

Cc1ccccc1NC(=O)CC(=O)n1nc(-c2ccccc2)c(/N=N/c2ccc([N+](=O)[O-])cc2)c1-c1ccccc1
inactive: UO-31 7.03 µM | IGROV-1 28.1 µM | UACC-257 19.9 µM | SNB-75 19.2 µM | OVCAR-4 23.6 µM | EKVX 20.2 µM | MOLT-4 16.1 µM | NCI-H522 18.9 µM | NCI-H23 21.3 µM | M14 16.7 µM | OVCAR-5 32 µM | SF-268 21.2 µM | K562 12.3 µM | CCRF-CEM 28.4 µM
